Test results published in patent US11174240B2, “Crystalline solid compound of 3-phenyl-4-propyl-1-(pyridin-2-yl)-1H-pyrazol-5-ol hydrochloride” (Aptabio Therapeutics Inc., priority 2017, dated 2021).

Legend:
Type in all cases: physicochemical
[1] = Hygroscopicity test (Karl-Fischer water content under accelerated storage); details: for Water content (%) 1 day: 1 day at 40° C. / 75% relative humidity; for Water content (%) 1 day / Water content (%) 3 days / Water content (%) 7 days: Petri dish without sealing; for Water content (%) 3 days: 3 days at 40° C. / 75% relative humidity; for Water content (%) 7 days: 7 days at 40° C. / 75% relative humidity; for Water content (%) Initial: before storage at 40° C. / 75% relative humidity
Procedure: Hygroscopicity comparison experiments were conducted on each of the crystalline free base compound (Example 1), the crystalline hydrochloride compound (Example 2), the non-crystalline free base compound (Comparative Example 1), the non-crystalline hydrochloride compound (Comparative Example 2) and various crystalline acid addition compounds (Comparative Example 3).
The test compounds were exposed in a Petri dish under accelerated storage conditions at a temperature of 40° C. and a relative humidity of 75% for 7 days without sealing. The water content of each test compound was measured using a Karl-Fischer moisture meter. Table 2 summarizes the water content (%) of each test compound measured during the storage period.

[2] = Stability comparison test (long-term storage, HPLC of decomposition product of Formula 3 and total impurities); details: for Concentration of decomposition product of Formula 3 (%) 6 months / Total impurity concentration (%) 6 months: 6 months at 25° C. / 60% relative humidity
Procedure: Stability comparison experiments were conducted on each of the crystalline free base compound (Example 1), the crystalline hydrochloride compound (Example 2), the non-crystalline free base compound (Comparative Example 1), the non-crystalline hydrochloride compound (Comparative Example 2) and various crystalline acid addition compounds (Comparative Example 3).
The test compound was stored in a chamber for stability measurement under long-term storage conditions at a temperature of 25° C. and a relative humidity of 60% for 6 months. For storage, each test compound was placed in a double polyethylene bag, and the polyethylene bag was filled with a silica gel pouch and was then placed in a small paper box (fiber drum).
The following Table 3 summarizes the results of the measurement of the concentration of the degradation product of Formula 3 and the total impurity concentration by HPLC analysis after storage under long-term storage conditions for 6 months.
[Analytical Conditions of Liquid Chromatography (HPLC)]
Column temperature: 35° C.
Detector: UV Detector (246 nm)
Gradient condition of mobile phase: […]

[3] = Evaluation of polymorphic transition (PXRD and DSC after storage); details: for DSC endothermic temperature 4 weeks: 4 weeks at 40° C. / 75% relative humidity in polyethylene bag; for DSC endothermic temperature Initial: initial state; for Comparison and determination results (polymorphic transition): initial vs 4 weeks at 40° C. / 75% relative humidity, PXRD and DSC
Procedure: In order to determine whether or not the polymorphic transition phenomenon occurs under the storage conditions in the crystalline free base compound (Example 1) and the crystalline hydrochloride compound (Example 2), the results of PXRD analysis in the initial state and the possibility of polymorphic transition over time were examined.
Specifically, the test compound was stored in a polyethylene bag in a chamber for stability measurement at a temperature of 40° C. and a relative humidity of 75% for 4 weeks. Also, PXRD and DSC analysis results, measured at the initial state and after 4 weeks, were compared.

Row | SMILES | Water content (%) 1 day [1] [%] | Water content (%) 3 days [1] [%] | Water content (%) 7 days [1] [%] | Water content (%) Initial [1] [%] | Concentration of decomposition product of Formula 3 (%) 6 months [2] [%] | Total impurity concentration (%) 6 months [2] [%] | Concentration of decomposition product of Formula 3 (%) Initial [2] [%] | Total impurity concentration (%) Initial [2] [%] | Water content (%) 1 day ([1]; hydrochloride) [%] | Water content (%) 3 days ([1]; hydrochloride) [%] | Water content (%) 7 days ([1]; hydrochloride) [%] | Water content (%) Initial ([1]; hydrochloride) [%] | Concentration of decomposition product of Formula 3 (%) 6 months ([2]; hydrochloride) [%] | Total impurity concentration (%) 6 months ([2]; hydrochloride) [%] | Concentration of decomposition product of Formula 3 (%) Initial ([2]; hydrochloride) [%] | Total impurity concentration (%) Initial ([2]; hydrochloride) [%] | DSC endothermic temperature 4 weeks [3] [°C] | DSC endothermic temperature Initial [3] [°C] | Comparison and determination results (polymorphic transition) [3] | Comparison and determination results (polymorphic transition) ([3]; hydrochloride)
1 | CCCc1c(-c2ccccc2)nn(-c2ccccn2)c1O [Comparative Example 1, 3-phenyl-4-propyl-1-(pyridin-2-yl)-1H-pyrazol-5-ol] | 1.30 | 2.27 | 2.95 | 0.33 | 0.65 | 7.58 | 0.06 | 0.26 | – | – | – | – | – | – | – | – | – | – | – | –
2 | CCCc1c(-c2ccccc2)nn(-c2ccccn2)c1O.Cl [Comparative Example 2, 3-phenyl-4-propyl-1-(pyridin-2-yl)-1H-pyrazol-5-ol hydrochloride] | – | – | – | – | – | – | – | – | 1.98 | 3.54 | 7.52 | 0.31 | 0.92 | 5.87 | 0.05 | 0.35 | – | – | – | –
3 | CCCc1c(-c2ccccc2)nn(-c2ccccn2)c1O [Example 1, 3-phenyl-4-propyl-1-(pyridin-2-yl)-1H-pyrazol-5-ol] | 0.29 | 0.32 | 0.34 | 0.26 | 0.09 | 0.47 | 0.05 | 0.32 | – | – | – | – | – | – | – | – | 72.8 | 73.54 | no polymorphic transition occurred | –
4 | CCCc1c(-c2ccccc2)nn(-c2ccccn2)c1O.Cl [Example 2, 3-phenyl-4-propyl-1-(pyridin-2-yl)-1H-pyrazol-5-ol hydrochloride] | – | – | – | – | – | – | – | – | 0.31 | 0.37 | 0.39 | 0.25 | 0.08 | 0.45 | 0.03 | 0.28 | 133.4 | 134.25 | – | no polymorphic transition occurred
5 | CCCc1c(-c2ccccc2)nn(-c2ccccn2)c1O [Hemi-1,5-naphthalene disulfonate, 3-phenyl-4-propyl-1-(pyridin-2-yl)-1H-pyrazol-5-ol] | 0.12 | 0.13 | 0.15 | 0.12 | 0.35 | 1.24 | 0.08 | 0.52 | – | – | – | – | – | – | – | – | – | – | – | –
6 | CCCc1c(-c2ccccc2)nn(-c2ccccn2)c1O [L-malate, 3-phenyl-4-propyl-1-(pyridin-2-yl)-1H-pyrazol-5-ol] | 1.58 | 1.75 | 2.80 | 0.45 | 0.78 | 3.27 | 0.12 | 0.58 | – | – | – | – | – | – | – | – | – | – | – | –
7 | CCCc1c(-c2ccccc2)nn(-c2ccccn2)c1O [L-tartrate, 3-phenyl-4-propyl-1-(pyridin-2-yl)-1H-pyrazol-5-ol] | 0.34 | 0.34 | 0.38 | 0.33 | 0.54 | 1.85 | 0.10 | 0.40 | – | – | – | – | – | – | – | – | – | – | – | –
8 | CCCc1c(-c2ccccc2)nn(-c2ccccn2)c1O [Succinate, 3-phenyl-4-propyl-1-(pyridin-2-yl)-1H-pyrazol-5-ol] | 0.42 | 0.44 | 0.48 | 0.37 | 0.38 | 1.65 | 0.09 | 0.48 | – | – | – | – | – | – | – | – | – | – | – | –
